Assays:
[1] = system: IgE antibody present in the serum of a fish-allergic patient; test: Epitope mapping (1): peptide array of overlapping 15-amino-acid peptides; assay type: binding, human; conditions: average of 5 patients / average of 4 non-fish-allergic subjects at least 1.5, Mann-Whitney U test
Protocol: Epitope mapping was carried out using a library of overlapping peptides (length: 15 amino acids) corresponding to the amino acid sequences identified as allergy components of fish and the amino acid sequences of known fish allergy antigens aldolase, β-enolase, and glyceraldehyde-3-phosphate dehydrogenase (Non Patent Literature 2-4). Specifically, the library of overlapping peptides was prepared on the basis of the amino acid sequences of SEQ ID NO: 2 for alpha-actinin-3, SEQ ID NO: 5 for EEF1A2 binding protein-like, SEQ ID NO: 10 for alpha-1,4-glucan phosphorylase, SEQ ID NO: 19 for elongation factor 2, SEQ ID NO: 26 for heat shock cognate 70 kDa protein, SEQ ID NO: 33 for serotransferrin, SEQ ID NO: 43 for myosin binding protein H-like, SEQ ID NO: 56 for desmin (fragment), SEQ ID NO: 61 for capping protein (actin filament) muscle Z-line beta, SEQ ID NO: 70 for myosin heavy chain, fast skeletal muscle-like, SEQ ID NO: 110 for glycogen phosphorylase, muscle form-like, SEQ ID NO: 121 for myosin-binding protein C, fast-type-like, SEQ ID NO: 138 for ATP synthase subunit beta, mitochondrial, SEQ ID NO: 144 for L-lactate dehydrogenase A chain-like, SEQ ID NO: 445 for aldolase, SEQ ID NO: 446 for β-enolase, and SEQ ID NO: 447 for glyceraldehyde-3-phosphate dehydrogenase.
The peptides to be synthesized were shifted by 10 amino acids.
For preparation of peptide arrays, the Intavis CelluSpots™ technique was used. Specifically, the peptide arrays were prepared by the following procedure: (1) synthesizing peptides of interest on amino-modified cellulose disks using an automated chemical synthesis apparatus (Intavis MultiPep RS), (2) dissolving the amino-modified cellulose disks to obtain a cellulose-bound peptide solution, and (3) spotting the cellulose-bound peptides onto coated glass slides. The details of each procedure are as described below.
The presence or absence of binding, to each peptide fragment, of an IgE antibody present in the serum of a fish-allergic patient was measured through antigen-antibody reaction using the peptide arrays. The measurement was carried out according to the following procedure. • (1) The peptides were shaken at room temperature for 1 hour in PBST. • (2) The peptide arrays were shaken at overnight at room temperature in 5% serum/PBST. • (3) The peptide arrays were washed with a PBST solution (a PBS buffer containing 0.1% Tween 20 nonionic surfactant) for 5 minutes (×3). • (4) Anti-human IgE antibody-HRP(1:5,000, PBST) was added thereto, and the peptide arrays were shaken at room temperature for 1 hour. • (5) The peptide arrays were washed with a PBST solution for 5 minutes (×3). • (6) Pierce ECL Plus Western Blotting Substrate (produced by Thermo Fisher Scientific) was added thereto, and the peptide arrays were shaken at room temperature for 5 minutes. • (7) The chemiluminescence of the peptides treated as described above in (1) to • (6) was measured using Amersham Imager 600.
Chemiluminescence intensity in images obtained by the measurement described above in (7) was converted into a numeric value using ImageQuant TL (GE Healthcare). The average value of numeric values determined from images obtained from results about the serum of 5 patients was divided by the average value of numeric values determined from images obtained from results about the serum of 4 non-fish-allergic subjects. It was determined that a peptide having a calculated value (average value of the patient group/average value of the non-fish-allergic subject group) of at least 1.5 and a significant difference of […] in the Mann-Whitney U test was a peptide bound to an IgE antibody in a patient-specific manner.

[2] = system: IgE antibodies from patients; test: Epitope mapping (3): alanine scanning; design: species or system human; conditions: positions numbered within the region important for binding; no influence on IgE binding when substituted by alanine
Protocol: From the amino acid sequences identified above in (A), a library of peptide fragments in which N-terminal amino acids were substituted one by one by alanine according to a technique called alanine scanning (Non Patent Literature 5) was prepared by the same technique as described above. The presence or absence of binding of an IgE antibody present in the serum of a patient and a non-fish-allergic subject to each peptide fragment was measured by the same technique as described above. Amino acids at positions where the binding activity against IgE antibodies from patients were lost or decreased by the substitution by alanine while binding activity against IgE antibodies from non-fish-allergic subjects arose were confirmed as amino acids important for exertion of original antigenicity, or amino acids influencing exertion of original antigenicity.
Chemiluminescence intensity in images obtained by measurement was converted into a numeric value in the same manner as in (A) using ImageQuant TL (GE Healthcare). When values obtained using the sequences (SEQ ID NOs: 150-204) that were of the peptides confirmed to bind to an IgE antibody in a patient specific manner from the images obtained from results about the serum of 5 patients and served as the basis of overlapping were defined as 100%, it was determined that: a peptide having a value of less than 20% had no binding activity against IgE antibodies; a peptide having a value of 20% or more and less than 50% had binding activity, albeit poor, against IgE antibodies; a peptide having a value of 50% or more and less than 70% had binding activity, albeit somewhat poor, against IgE antibodies; a peptide having a value of 70% or more and less than 90% had equivalent binding activity against IgE antibodies; and a peptide having a value of 90% or more had almost equivalent or good binding activity against IgE antibodies and was thus a peptide had remaining binding activity against IgE antibodies.
By this analysis, common sequences important for exertion of original antigenicity were found in regions important for binding to IgE antibodies from patients, in the sequences serving as the basis of overlapping.

[3] = system: IgE antibodies from patients; test: Epitope mapping (2): overlapping 10-amino-acid peptide fragments shifted by one amino acid; assay type: binding, human; conditions: positions numbered within the 15-amino-acid epitope; serum of 5 patients
Description: On the basis of the sequences (SEQ ID NOs: 150-154 for alpha-actinin-3, SEQ ID NO: 155 for EEF1A2 binding protein-like, SEQ ID NOs: 156 and 157 for alpha-1,4-glucan phosphorylase, SEQ ID NOs: 158 and 159 for elongation factor 2, SEQ ID NOs: 160-162 for heat shock cognate 70 kDa protein, SEQ ID NOs: 163-167 for serotransferrin, SEQ ID NOs: 168-171 for myosin binding protein H-like, SEQ ID NOs: 172-174 for desmin (fragment), SEQ ID NOs: 175-178 for capping protein (actin filament) muscle Z-line beta, SEQ ID NOs: 179-185 for myosin heavy chain, fast skeletal muscle-like, SEQ ID NO: 186 for glycogen phosphorylase, muscle form-like, SEQ ID NOs: 187-196 for myosin-binding protein C, fast-type-like, SEQ ID NO: 197 for ATP synthase subunit beta, mitochondrial, SEQ ID NO: 198 for L-lactate dehydrogenase A chain-like, SEQ ID NO: 199 for aldolase, SEQ ID NOs: 200-202 for β-enolase, and SEQ ID NOs: 203 and 204 for glyceraldehyde-3-phosphate dehydrogenase) of the peptides bound to an IgE antibody in serum in a patient-specific manner as described above in (A), a library of overlapping peptide fragments (length: 10 amino acids) was prepared using the sequences of the peptides and sequences in which sequences were added so as to flank each peptide in the amino acid sequences of allergen components (SEQ ID NO: 2 for alpha-actinin-3, SEQ ID NO: 5 for EEF1A2 binding protein-like, SEQ ID NO: 10 for alpha-1,4-glucan phosphorylase, SEQ ID NO: 19 for elongation factor 2, SEQ ID NO: 26 for heat shock cognate 70 kDa protein, SEQ ID NO: 33 for serotransferrin, SEQ ID NO: 43 for myosin binding protein H-like, SEQ ID NO: 56 for desmin (fragment), SEQ ID NO: 61 for capping protein (actin filament) muscle Z-line beta, SEQ ID NO: 70 for myosin heavy chain, fast skeletal muscle-like, SEQ ID NO: 110 for glycogen phosphorylase, muscle form-like, SEQ ID NO: 121 for myosin-binding protein C, fast-type-like, SEQ ID NO: 138 for ATP synthase subunit beta, mitochondrial, SEQ ID NO: 144 for L-lactate dehydrogenase A chain-like, SEQ ID NO: 445 for aldolase, SEQ ID NO: 446 for β-enolase, and SEQ ID NO: 447 for glyceraldehyde-3-phosphate dehydrogenase) comprising the sequences of the peptide. Epitope mapping was carried out using the library.
The peptides to be synthesized were shifted by one amino acid.
The library was prepared by the same procedure as described above in (A), and the presence or absence of binding of an IgE antibody present in the serum of a patient and a non-fish-allergic subject to each peptide fragment was measured by the same technique as described above. Amino acids at positions where the binding activity against IgE antibodies from patients were lost or decreased in the peptides shifted by one amino acid while binding activity against IgE antibodies from non-fish-allergic subjects arose were confirmed as amino acids adversely affecting the specificity of binding to IgE antibodies.
Chemiluminescence intensity in images obtained by measurement was converted into a numeric value in the same manner as in (A) using ImageQuant TL (GE Healthcare). […]

[4] = system: IgE antibody in the serum of a fish-allergic patient; test: Immunoblotting of two-dimensional electrophoresis patterns of fish meat proteins with patient serum; assay type: binding, human; conditions: for specific binding to IgE antibodies from fish-allergic patients: spots in two-dimensional electrophoresis gel of proteins in fish, patients diagnosed with immediate-type allergy
Protocol: Proteins contained in fish were analyzed by the aforementioned technique to identify antigens of an allergy to fish. To be specific, proteins were extracted from fish meat and subjected to two-dimensional electrophoresis under the conditions described below.
The electrophoresis in the first dimension was isoelectric focusing, which was performed using isoelectric focusing gels with a gel-strip length of 5 to 10 cm and a gel pH range of 3 to 10. The pH gradient of the gels in the direction of electrophoresis was as follows: with the total gel-strip length being taken as 1, the gel-strip length up to pH 5 was “a=0.15 to 0.3”, the gel-strip length from pH 5 to 7 was “b=0.4 to 0.7”, and the gel-strip length above pH 7 was “c=0.15 to 0.3”. More specifically, the isoelectric focusing was performed using the IPG gels, Immobiline Drystrip (pH3-10NL), produced by GE Healthcare Bio-Sciences Corporation (hereinafter abbreviated as “GE”). The electrophoresis system used was IPGphor produced by GE. The maximum current of the electrophoresis system was limited to 75 μA per gel strip. The voltage program adopted to perform the first-dimensional isoelectric focusing was as follows: (1) a constant voltage step was performed at a constant voltage of 300 V until the volt-hours reached 750 Vhr (the current variation width during electrophoresis for 30 minutes before the end of this step was 5 μA); (2) the voltage was increased gradually to 1000 V for 300 Vhr; (3) the voltage was further increased gradually to 5000 V for 4500 Vhr; and then (4) the voltage was held at a constant voltage of 5000 V until the total Vhr reached 12000.
The electrophoresis in the second dimension was SDS-PAGE, which was performed using polyacrylamide gels whose gel concentration at the distal end in the direction of electrophoresis was set to 3 to 6% and whose gel concentration at the proximal end was set to a higher value than that at the distal end. More specifically, the SDS-PAGE was performed using NuPAGE 4-12% Bris-Tris Gels (IPG well, Mini, 1 mm) produced by Life Technologies. The electrophoresis system used was XCell SureLock Mini-Cell produced by Life Technologies. The electrophoresis was run at a constant voltage of 200 V for about 45 minutes using an electrophoresis buffer composed of 50 mM MOPS, 50 mM Tris base, 0.1% (w/v) SDS and 1 mM EDTA.
Identification of antigens by immunoblotting was carried out by taking all the steps up to the step of “Second-dimensional SDS-PAGE” as described above in Example 1, followed by the steps of “Transfer to membrane”, “Immunoblotting” and “Analysis” as described below.
To be specific, proteins in the second-dimensional electrophoresis gels were transferred to a membrane (PVDF membrane) according to the following procedure. • (1) The PVDF membrane was immersed in 100% methanol followed by milliQ water, and then moved into the transfer buffer to hydrophilize the PVDF membrane. • (2) After sponge, filter paper, the second-dimensional electrophoresis gels treated by second-dimensional SDS-PAGE, the hydrophilized PVDF membrane, filter paper, and sponge were put in place in this order, the transfer system was energized at a constant voltage of 30 V for one hour. Immunoblotting
Immunoblotting of the membrane was carried out using, as a primary antibody, a serum sample from patient 1 with a fish allergy or a serum sample from a non-fish-allergic subject. This fish-allergic patient 1 was a patient diagnosed with immediate-type allergy to fish. […]

Substance	IgE antibody binding in a patient-specific manner [1]	Positions of amino acids of region important for binding in epitope [3]	specific binding to IgE antibodies from fish-allergic patients [4]	Non-binding-influencing amino acid in region important for binding [2]	spots detected by immunoblotting, different from spots with serum of non-fish-allergic subject ([4]; proteins contained in salmon meat, serum from fish-allergic patient 2 (FIG. 1B left))
6 (LDNRLYYMVAEHDSS; epitope) [compound 6]	bind in a patient-specific manner	1-11	–	8	–
Capping protein (actin filament) muscle Z-line beta [Spot 9]	–	–	specific binding to IgE antibodies	–	detected
Heat shock cognate 70 kDa protein [Spot 5]	–	–	specific binding to IgE antibodies	–	–
8 (DRFKVFADYEAYIKS; epitope) [compound 8]	bind in a patient-specific manner	2-9	–	–	–

Now from value to substance, other results behind:

IgE antibody binding in a patient-specific manner [1]	Positions of amino acids of region important for binding in epitope [3]	specific binding to IgE antibodies from fish-allergic patients [4]	Substance	Non-binding-influencing amino acid in region important for binding [2]	spots detected by immunoblotting, different from spots with serum of non-fish-allergic subject ([4]; proteins contained in salmon meat, serum from fish-allergic patient 2 (FIG. 1B left))
bind in a patient-specific manner	–	–	55 (PASYDAIKKVVKAAA; epitope) [compound 55]	5	–
bind in a patient-specific manner	–	–	37 (GGYIQAVLDRNLCEN; epitope) [compound 37]	3	–
bind in a patient-specific manner	1-15	–	54 (YMVYMFKYDSTHGRF; epitope) [compound 54]	–	–
bind in a patient-specific manner	5-13	–	49 (VLAGEPVGSRSKVTV; epitope) [compound 49]	6	–
bind in a patient-specific manner	–	–	9 (AIMDKKSNIRNMSVI; epitope) [compound 9]	–	–

Reference: US12630594B2, “Allergy antigen and epitope for same” (HOYU CO., LTD., priority 2017, dated 2026)
